Results from article PMC7380196, “Unveiling the activation dynamics of a fold-switch bacterial glycosyltransferase by ^19F NMR” (The Journal of Biological Chemistry, 2020).

Biological target: T1, PimA (Mycolicibacterium smegmatis, UniProt A0QWG6)
T1 construct: recombinant from pET29a-pimA in E. coli BL21(DE3) pLysS; purified
T1 sequence (A0QWG6 1-386): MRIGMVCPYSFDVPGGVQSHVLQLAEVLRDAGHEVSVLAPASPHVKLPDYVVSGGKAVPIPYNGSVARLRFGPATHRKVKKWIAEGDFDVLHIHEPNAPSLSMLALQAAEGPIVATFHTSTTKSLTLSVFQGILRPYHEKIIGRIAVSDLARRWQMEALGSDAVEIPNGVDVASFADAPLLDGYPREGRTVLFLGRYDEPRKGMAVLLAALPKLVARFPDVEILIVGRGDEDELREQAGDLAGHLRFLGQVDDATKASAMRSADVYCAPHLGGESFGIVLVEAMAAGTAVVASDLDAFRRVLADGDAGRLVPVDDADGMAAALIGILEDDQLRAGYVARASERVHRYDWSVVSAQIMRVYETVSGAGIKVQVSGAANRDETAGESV
Assay: thermal unfolding by far-UV CD at […] nm
Type: binding
Conditions: 10 mM Tris-HCl, pH 7.5; 10 uM protein, ligand 1:15

Compound: Nc1nc2c(ncn2[C@@H]2O[C@H](COP(=O)(O)OP(=O)(O)O)[C@@H](O)[C@H]2O)c(=O)[nH]1 [GDP]
- Tm: after the addition of GDP, wild-type PimA, PimA^R144C, and PimA^R144C-TFA displayed a clear increase
